Reference: ChEMBL document CHEMBL5614431, “Discovery of 1,3,4-oxadiazoles with slow-action activity against Plasmodium falciparum malaria parasites” (Eur J Med Chem, 2024)
One block for each molecule: values may come before it. Active and inactive are the calls of the source. No cut-off for these calls is given here.

Assays:
Plasmodium berghei [1] = assay: Antimalarial activity against Plasmodium berghei ANKA infected in female BALB/c mouse model assessed as reduction in parasitemia at 100 mg/kg, po qd pre-infected for 2 hrs followed by compound addition and measured after 3 days by microscopic analysis; assay type: functional, organism-based; settings: time 3.0 day
[2] = Cytotoxicity against human NFF cells assessed as reduction in cell viability incubated for 72 hrs by SRB assay; assay type: toxicity, cell-based
[3] = Metabolic stability in mouse liver microsomes assessed as half life; assay type: ADME, Microsome
[4] = Toxicity in female BALB/c mouse assessed as appearance of ruffled coats in animal at 116 mg/kg, po via gavage administered once daily for 3 days; assay type: organism-based; settings: in vivo, 72 h, time 3 day
[5] = Toxicity in female BALB/c mouse assessed as adverse clinical effect at 116 mg/kg, po via gavage administered once for 3 days; assay type: organism-based; settings: in vivo, 72 h, time 3 day
Plasmodium falciparum [6] = assay: Antimalarial activity against synchronous ring stage Plasmodium falciparum 3D7 infected in human Erythrocyte assessed as inhibition of parasite growth incubated for 48 hrs by [3H]-hypoxanthine incorporation assay; assay type: functional, organism-based; settings: 3D7, Erythrocyte
[7] = Toxicity in female BALB/c mouse assessed as effect on liver at 116 mg/kg, po via gavage administered once daily for 3 days; assay type: organism-based; settings: in vivo, 72 h, time 3 day
Plasmodium berghei [8] = assay: Antimalarial activity against Plasmodium berghei ANKA infected in female BALB/c mouse model assessed as reduction in parasitemia at 100 mg/kg, po bid pre-infected for 2 hrs followed by compound addition and measured after 3 days by microscopic analysis; assay type: functional, organism-based; settings: time 3.0 day
[9] = Toxicity in female BALB/c mouse assessed as adverse clinical effect at 116 mg/kg, po via gavage administered twice for 3 days; assay type: organism-based; settings: in vivo, 72 h, time 3 day
[10] = Selectivity ratio of IC50 for antimalarial activity against synchronous ring stage Plasmodium falciparum 3D7 infected in human Erythrocyte assessed as inhibition of parasite growth incubated for 96 hrs supplemented with IPP by [3H]-hypoxanthine incorporation assay to IC50 for antimalarial activity against synchronous ring stage Plasmodium falciparum 3D7 infected in human Erythrocyte assessed as …; assay type: functional
[11] = Apparent permeability of the compound in human Caco-2 cells across apical to basolateral side; assay type: ADME, cell-based
Plasmodium falciparum [12] = assay: Antimalarial activity against multidrug-resistant synchronous ring stage Plasmodium falciparum Dd2 infected in human Erythrocyte assessed as inhibition of parasite growth incubated for 48 hrs by [3H]-hypoxanthine incorporation assay; assay type: functional, organism-based
[13] = AUC (0 to t) in non fasted female BALB/c mouse plasma at 100 mg/kg, po via gavage and measured after 7.5 hrs by LC-MS analysis; assay type: ADME, organism-based
Plasmodium falciparum [14] = assay: Antimalarial activity against synchronous ring stage Plasmodium falciparum 3D7 infected in human Erythrocyte assessed as inhibition of parasite growth incubated for 96 hrs supplemented with IPP by [3H]-hypoxanthine incorporation assay; assay type: functional, organism-based; settings: 3D7, Erythrocyte
[15] = Selectivity index, ratio of IC50 for cytotoxicity against human NFF cells to IC50 for antimalarial activity against synchronous ring stage Plasmodium falciparum 3D7 infected in human Erythrocyte assessed as inhibition of parasite growth incubated for 96 hrs; assay type: toxicity, cell-based; settings: read-out: Ratio IC50
Plasmodium falciparum [16] = assay: Resistance index, ratio of IC50 for antimalarial activity against multidrug-resistant synchronous ring stage Plasmodium falciparum Dd2 infected in human Erythrocyte assessed as inhibition of parasite growth incubated for 96 hrs by [3H]-hypoxanthine incorporation assay to IC50 for antimalarial activity against synchronous ring stage Plasmodium falciparum 3D7 infected in human Erythrocyte assessed …; assay type: toxicity, organism-based
[17] = Tmax in non fasted female BALB/c mouse at 100 mg/kg, po via gavage and measured upto 24 hrs by LC-MS analysis; assay type: ADME, organism-based; settings: in vivo
Plasmodium falciparum [18] = assay: Antimalarial activity against multidrug-resistant synchronous ring stage Plasmodium falciparum Dd2 infected in human Erythrocyte assessed as inhibition of parasite growth incubated for 96 hrs by [3H]-hypoxanthine incorporation assay; assay type: functional, organism-based
[19] = Selectivity ratio of IC50 for antimalarial activity against multidrug-resistant synchronous ring stage Plasmodium falciparum Dd2 infected in human Erythrocyte assessed as inhibition of parasite growth incubated for 48 hrs by [3H]-hypoxanthine incorporation assay to IC50 for antimalarial activity against multidrug-resistant synchronous ring stage Plasmodium falciparum Dd2 infected in human …; assay type: functional
[20] = Chemical stability of the compound in aqueous buffer/THF assessed as degradation measured over 24 hrs; assay type: physicochemical
[21] = Toxicity in female BALB/c mouse assessed as effect on kidney at 116 mg/kg, po via gavage administered twice daily for 3 days; assay type: organism-based; settings: in vivo, 72 h, time 3 day
[22] = Plasma concentration in female BALB/c mouse at 100 mg/kg, po measured after 7.5 hrs; assay type: ADME, organism-based; settings: in vivo, BLD = below limit of detection
[23] = Selectivity ratio of IC50 for antimalarial activity against synchronous ring stage Plasmodium falciparum 3D7 infected in human Erythrocyte assessed as inhibition of parasite growth incubated for 48 hrs by [3H]-hypoxanthine incorporation assay to IC50 for antimalarial activity against synchronous ring stage Plasmodium falciparum 3D7 infected in human Erythrocyte assessed as inhibition of parasite growth incubated for 48 hrs by [3H]-hypoxanthine incorporation assay; assay type: functional
[24] = Chemical stability of the compound in 1:1 mixture of 6M aqueous hydrochloric acid/THF assessed as degradation measured over 20 hrs; assay type: physicochemical; settings: buffer
[25] = Toxicity in female BALB/c mouse assessed as effect on kidney at 116 mg/kg, po via gavage administered once daily for 3 days; assay type: organism-based; settings: in vivo, 72 h, time 3 day
[26] = Toxicity in female BALB/c mouse assessed as effect on liver at 116 mg/kg, po via gavage administered twice daily for 3 days; assay type: organism-based; settings: in vivo, 72 h, time 3 day
Plasmodium falciparum [27] = assay: Antimalarial activity against synchronous ring stage Plasmodium falciparum 3D7 infected in human Erythrocyte assessed as inhibition of parasite growth incubated for 96 hrs by [3H]-hypoxanthine incorporation assay; assay type: functional, organism-based; settings: 3D7, Erythrocyte
[28] = Metabolic stability in human liver microsomes assessed as half life; assay type: ADME, Microsome
[29] = Cmax in non fasted female BALB/c mouse plasma at 100 mg/kg, po via gavage and measured upto 24 hrs by LC-MS analysis; assay type: ADME, organism-based
[30] = Toxicity in female BALB/c mouse assessed as appearance of ruffled coats in animal at 116 mg/kg, po via gavage administered twice daily for 3 days; assay type: organism-based; settings: in vivo, 72 h, time 3 day
Plasmodium berghei [31] = assay: Antimalarial activity against Plasmodium berghei ANKA infected in female BALB/c mouse model assessed as reduction in parasitemia at 10 mg/kg, po qd pre-infected for 2 hrs followed by compound addition and measured after 3 days by microscopic analysis; assay type: functional, organism-based; settings: time 3.0 day
[32] = Apparent half life in non fasted female BALB/c mouse at 100 mg/kg, po via gavage and measured upto 24 hrs by LC-MS analysis; assay type: ADME, organism-based; settings: in vivo, read-out: t1/2(app) (converted)
[33] = AUC (0 to infinity) in non fasted female BALB/c mouse at 100 mg/kg, po via gavage and measured upto 24 hrs by LC-MS analysis; assay type: ADME, organism-based; settings: in vivo
[34] = AUC (0 to t) in non fasted female BALB/c mouse plasma at 100 mg/kg, po via gavage and measured after 4 hrs by LC-MS analysis; assay type: ADME, organism-based

Structure (SMILES): O=S(=O)(c1nnc(N2CCOCC2)o1)C1CCCCC1
Activity (Plasmodium berghei [1]): Active | IC50 at 72 h [2]: > 100 µM | half-life [3]: 99 min | Activity [4]: Toxic | Activity [5]: Non-Toxic | IC50 (Plasmodium falciparum [6]): > 50 µM | Activity [7]: Non-Toxic | Activity (Plasmodium berghei [8]): Active | Activity [9]: Non-Toxic | Ratio IC50 [10]: 3 | Papp A→B [11]: 86 ×10⁻⁶ cm/s | IC50 (Plasmodium falciparum [12]): > 25 µM | AUC(0-t) at 7.5 h [13]: 11.5 µM·h | IC50 (Plasmodium falciparum [14]): 1.79 µM | selectivity ratio at 96 h [15]: > 182 | Ratio IC50 (Plasmodium falciparum [16]): 1 | Tmax [17]: 15 min | IC50 (Plasmodium falciparum [18]): 0.5 µM | Ratio IC50 [19]: >50 | Stability [20]: Stable | Activity [21]: Non-Toxic | Cp [22]: Bld | Ratio IC50 [23]: >91 | Stability [24]: Unstable | Activity [25]: Non-Toxic | Activity [26]: Non-Toxic | IC50 (Plasmodium falciparum [27]): 0.55 µM | half-life [28]: > 255 min | Cmax [29]: 7610 nM | Activity [30]: Toxic

Structure (SMILES): Cc1ccc(C)c(CS(=O)(=O)c2nnc(N3CCOCC3)o2)c1
IC50 at 72 h [2]: 20.4 µM | half-life [3]: 3 min | IC50 (Plasmodium falciparum [6]): 12.4 µM | Ratio IC50 [10]: 1 | Papp A→B [11]: 39 ×10⁻⁶ cm/s | IC50 (Plasmodium falciparum [12]): 13 µM | IC50 (Plasmodium falciparum [14]): 0.84 µM | selectivity ratio at 96 h [15]: 24 | Ratio IC50 (Plasmodium falciparum [16]): 0.7 | IC50 (Plasmodium falciparum [18]): 0.57 µM | Ratio IC50 [19]: 23 | Ratio IC50 [23]: 15 | IC50 (Plasmodium falciparum [27]): 0.84 µM | half-life [28]: 5 min

AUC(0-t) at 7.5 h [13]: 1.16 µM·h | Tmax [17]: 15 min | Cmax [29]: 650 nM
Structure (SMILES): O=S(=O)(c1nnc(N2CCOCC2)o1)C1CCCCCC1
IC50 at 72 h [2]: > 100 µM | IC50 (Plasmodium falciparum [6]): > 25 µM | selectivity ratio at 96 h [15]: > 769 | Ratio IC50 [23]: >137 | IC50 (Plasmodium falciparum [27]): 0.18 µM

half-life [3]: 18 min | Papp A→B [11]: 44 ×10⁻⁶ cm/s | half-life [28]: 112 min
Structure (SMILES): O=S(=O)(c1nnc(N2CCC3(CC2)COC3)o1)C1CCCCC1
IC50 at 72 h [2]: > 100 µM | IC50 (Plasmodium falciparum [6]): > 10 µM | selectivity ratio at 96 h [15]: > 1020 | Ratio IC50 [23]: >102 | IC50 (Plasmodium falciparum [27]): 0.1 µM

Structure (SMILES): CCN(CC)CCCC(C)Nc1ccnc2cc(Cl)ccc12 (stereo not given) [CHLOROQUINE]
IC50 at 72 h [2]: 36.7 µM | Activity (Plasmodium berghei [31]): Active

Structure (SMILES): CC1CCN(c2nnc(S(=O)(=O)Cc3ccc(Cl)c(Cl)c3)o2)CC1
IC50 at 72 h [2]: 26 µM | half-life [3]: < 2 min | IC50 (Plasmodium falciparum [6]): 11.5 µM | Ratio IC50 [10]: 1 | IC50 (Plasmodium falciparum [12]): 10.1 µM | IC50 (Plasmodium falciparum [14]): 0.2 µM | selectivity ratio at 96 h [15]: 162 | Ratio IC50 (Plasmodium falciparum [16]): 0.4 | IC50 (Plasmodium falciparum [18]): 0.07 µM | Ratio IC50 [19]: 145 | Ratio IC50 [23]: 72 | IC50 (Plasmodium falciparum [27]): 0.16 µM | half-life [28]: 3 min

half-life [32]: 96 min | AUC(0-t) at 7.5 h [13]: 0.39 µM·h | Tmax [17]: 30 min | Stability [24]: Stable | Cmax [29]: 310 nM | AUC(0-inf) [33]: 0.41 µM·h
Structure (SMILES): C[C@@H]1CCC[C@H](C)N1c1nnc(S(=O)(=O)C2CCCCC2)o1
IC50 at 72 h [2]: > 100 µM | IC50 (Plasmodium falciparum [6]): > 12.5 µM | selectivity ratio at 96 h [15]: > 1670 | Ratio IC50 [23]: >165 | IC50 (Plasmodium falciparum [27]): 0.08 µM

half-life [3]: 7 min | half-life [28]: 68 min
Structure (SMILES): O=S(=O)(c1nnc(N2CCCCCC2)o1)C1CCCCC1
IC50 at 72 h [2]: > 100 µM | IC50 (Plasmodium falciparum [6]): > 10 µM | selectivity ratio at 96 h [15]: > 1150 | Ratio IC50 [23]: >114 | IC50 (Plasmodium falciparum [27]): 0.09 µM

half-life [32]: 57 min | Tmax [17]: 15 min | AUC(0-t) at 4 h [34]: 3.61 µM·h | Cmax [29]: 2140 nM | AUC(0-inf) [33]: 3.91 µM·h
Structure (SMILES): O=S(=O)(CC1CCC1)c1nnc(N2CCOCC2)o1
IC50 at 72 h [2]: > 100 µM | IC50 (Plasmodium falciparum [6]): > 10 µM | selectivity ratio at 96 h [15]: > 186 | Ratio IC50 [23]: >19 | IC50 (Plasmodium falciparum [27]): 0.53 µM

Structure (SMILES): CCC[C@@H]1C[C@@H](C(=O)N[C@@H]([C@H]2O[C@H](SC)[C@H](O)[C@@H](O)[C@H]2O)[C@H](C)Cl)N(C)C1 [CLINDAMYCIN]
Ratio IC50 [10]: 3571 | IC50 (Plasmodium falciparum [14]): > 25 µM

Structure (SMILES): CC1CCCN(c2nnc(S(=O)(=O)C3CCCCC3)o2)C1 (racemic)
IC50 at 72 h [2]: > 100 µM | IC50 (Plasmodium falciparum [6]): > 12.5 µM | selectivity ratio at 96 h [15]: > 1000 | Ratio IC50 [23]: >125 | IC50 (Plasmodium falciparum [27]): 0.1 µM
